From PMC11648915, “Identification and development of TRPM4 antagonists to counteract neuronal excitotoxicity” (iScience, 2024)
Like-named read-outs stand apart in the source and are kept apart here.

What was measured:
human TRPM5 = target: T1, human TRPM5 (Homo sapiens, UniProt Q9NZQ8); experiment: QPatch automated patch clamp on TRPM5-expressing HEK293 cells; format: cell-based; settings: hsTRPM5-expressing HEK293 cells
T1 sequence (Q9NZQ8 1-1165): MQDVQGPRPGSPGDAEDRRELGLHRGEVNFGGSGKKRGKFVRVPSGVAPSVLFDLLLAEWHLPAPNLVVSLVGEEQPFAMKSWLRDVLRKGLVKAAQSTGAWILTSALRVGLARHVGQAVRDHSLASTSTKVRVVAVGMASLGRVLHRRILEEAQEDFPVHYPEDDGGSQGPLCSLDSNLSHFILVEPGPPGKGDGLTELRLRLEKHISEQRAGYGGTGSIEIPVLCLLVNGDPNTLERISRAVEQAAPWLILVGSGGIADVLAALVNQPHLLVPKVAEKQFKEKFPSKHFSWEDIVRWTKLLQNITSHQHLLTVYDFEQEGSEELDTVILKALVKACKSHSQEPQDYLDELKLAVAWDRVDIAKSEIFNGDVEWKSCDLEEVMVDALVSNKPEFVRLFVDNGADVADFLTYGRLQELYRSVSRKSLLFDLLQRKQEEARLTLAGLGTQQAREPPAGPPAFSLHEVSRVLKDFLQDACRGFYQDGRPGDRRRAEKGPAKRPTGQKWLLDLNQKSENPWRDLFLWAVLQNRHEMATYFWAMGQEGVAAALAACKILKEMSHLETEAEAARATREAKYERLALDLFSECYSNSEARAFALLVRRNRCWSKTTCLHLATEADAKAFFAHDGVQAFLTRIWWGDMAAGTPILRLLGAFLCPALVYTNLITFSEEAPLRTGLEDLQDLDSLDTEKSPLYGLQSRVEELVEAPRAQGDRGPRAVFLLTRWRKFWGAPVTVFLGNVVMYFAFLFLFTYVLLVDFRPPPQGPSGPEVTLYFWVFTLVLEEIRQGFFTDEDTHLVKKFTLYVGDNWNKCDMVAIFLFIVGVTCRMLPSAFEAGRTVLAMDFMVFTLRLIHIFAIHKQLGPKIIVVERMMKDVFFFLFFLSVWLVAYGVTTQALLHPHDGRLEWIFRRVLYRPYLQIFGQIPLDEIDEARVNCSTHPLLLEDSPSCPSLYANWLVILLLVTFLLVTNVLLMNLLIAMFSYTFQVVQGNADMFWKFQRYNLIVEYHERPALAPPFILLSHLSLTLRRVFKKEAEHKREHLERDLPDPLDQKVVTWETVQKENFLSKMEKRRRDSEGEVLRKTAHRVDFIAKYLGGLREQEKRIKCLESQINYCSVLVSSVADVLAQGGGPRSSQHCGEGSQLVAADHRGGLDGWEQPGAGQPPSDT
Source text: The counter screening phase involved the inclusion of hsTRPM5-expressing HEK293 cells, as closest homologue, and the parental HEK293 cell line to evaluate selectivity. […] Based on categorization of biological activity, mass spectrometry quality control, and aspects of medicinal chemistry, we prioritized 144 selective hsTRPM4 compounds. These compounds were then subjected to automated patch clamp electrophysiology measurements (QPatch[58]) to evaluate their activity profiles and IC50 values (Figures 1A, S1, and S2).
(§1) QPatchHTX, an automated electrophysiology platform, was used in single hole mode. One day before use human TRPM4- or TRPM5-expressing HEK293 cells were seeded in a T75 flask at a density of 53k cells per cm^2 and at passages < 23. For QPatch assays, cells were harvested and re-suspended in SFM (Gibco, 11686029). The extracellular solution was (in mM): CaCl2 (7), MgCl2 (2), KCl (5), HEPES (10), NaCl (70), NMDG (70); pH 7.4 with NaOH. The intracellular solution was (in mM): HEPES (10), NMDG (100), NaCl (50), EGTA (20), MgCl2 (1), CaCl2 (21); pH 7.2 with HCl. After break-in, channels were consistently open and current through the channels could be observed at a voltage ramp from –100 mV to +100 mV over 500 ms. This protocol was repeated every 7 seconds. After saline and vehicle application, the channel was desensitized and residual current was used as baseline. FFA was used as reference compound and applied cumulatively with each concentration incubating at a minimum of 20 voltage protocol runs (140 seconds) with the current after addition of FFA being calculated as full block. […] Each compound was measured at least 3 time independently.

human TRPM4 = human TRPM4 (Homo sapiens, UniProt Q8TD43); experiment: QPatch automated patch clamp on TRPM4-expressing HEK293 cells; format: cell-based; settings: hsTRPM4-expressing HEK293 cells
Experimental: as §1, with “For QPatch assays, cells were harvested and re-suspended in SFM (Gibco, 11686029).” left out, “After break-in, channels were consistently open and current through the channels could be observed at a voltage ramp from –100 mV to +100 mV over 500 ms.” left out, “After saline and vehicle application, the channel was desensitized and residual current was used as baseline.” left out

CYP3A4 = target: T2, CYP3A4 (Homo sapiens, UniProt P08684); experiment: CYP inhibition assay 3A4; format: in vitro ADME
T2 construct: purchased BD Gentest
Experimental: The half-maximal inhibitory concentration (IC50) for cytochrome P450 (CYP) enzymes was determined using an in vitro enzyme inhibition assay. Recombinant CYP enzymes or human liver microsomes from BD Gentest, in 0.1 M phosphate buffer pH 7.4, containing native CYP enzymes were incubated with the test compound at various concentrations (1, 3, 10 and 30 μM) and containing 0.5% DMSO and 0.1% BSA final concentrations. 1 mM of NADPH cofactor was added and the reaction was started by a rapid increase of temperature until 37°C.

[1] = Caco-2 permeability assay; format: in vitro ADME; settings: human, direction not given
Experimental: Caco-2 permeability was evaluated using a cell-based assay with Caco-2 cells cultured on permeable membrane inserts. The test compound was added at 10 μM to the apical (donor) compartment, and samples were collected from the basolateral (receiver) compartment at 120 min. The test compound was also added at 10 μM to the basolateral (donor) compartment, and samples were collected from the apical (receiver) compartment at 120 min. The amount of the compound in both compartments was measured using mass spectrometry (LC-MS/MS). The permeability coefficient (Papp, nm/s) apical to basolateral and basolateral to apical, and an efflux ratio were calculated.

[2] = TDI, read-out: Cyp IC50 TDI 3A4

T2 sequence (P08684 whole entry): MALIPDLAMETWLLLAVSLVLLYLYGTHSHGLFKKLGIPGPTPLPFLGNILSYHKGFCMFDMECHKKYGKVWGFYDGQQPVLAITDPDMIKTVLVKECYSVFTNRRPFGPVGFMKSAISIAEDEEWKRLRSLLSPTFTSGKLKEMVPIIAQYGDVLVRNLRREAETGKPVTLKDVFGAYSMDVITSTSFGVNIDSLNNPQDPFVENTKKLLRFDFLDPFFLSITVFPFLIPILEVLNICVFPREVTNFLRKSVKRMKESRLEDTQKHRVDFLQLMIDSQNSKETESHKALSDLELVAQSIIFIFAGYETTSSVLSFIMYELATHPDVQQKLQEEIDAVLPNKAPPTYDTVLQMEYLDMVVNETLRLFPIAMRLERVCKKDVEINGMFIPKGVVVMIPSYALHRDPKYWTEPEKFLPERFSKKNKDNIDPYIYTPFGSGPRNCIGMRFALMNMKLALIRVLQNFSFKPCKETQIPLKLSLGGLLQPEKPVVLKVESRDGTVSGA
Chain of human TRPM4 (Q8TD43 whole entry): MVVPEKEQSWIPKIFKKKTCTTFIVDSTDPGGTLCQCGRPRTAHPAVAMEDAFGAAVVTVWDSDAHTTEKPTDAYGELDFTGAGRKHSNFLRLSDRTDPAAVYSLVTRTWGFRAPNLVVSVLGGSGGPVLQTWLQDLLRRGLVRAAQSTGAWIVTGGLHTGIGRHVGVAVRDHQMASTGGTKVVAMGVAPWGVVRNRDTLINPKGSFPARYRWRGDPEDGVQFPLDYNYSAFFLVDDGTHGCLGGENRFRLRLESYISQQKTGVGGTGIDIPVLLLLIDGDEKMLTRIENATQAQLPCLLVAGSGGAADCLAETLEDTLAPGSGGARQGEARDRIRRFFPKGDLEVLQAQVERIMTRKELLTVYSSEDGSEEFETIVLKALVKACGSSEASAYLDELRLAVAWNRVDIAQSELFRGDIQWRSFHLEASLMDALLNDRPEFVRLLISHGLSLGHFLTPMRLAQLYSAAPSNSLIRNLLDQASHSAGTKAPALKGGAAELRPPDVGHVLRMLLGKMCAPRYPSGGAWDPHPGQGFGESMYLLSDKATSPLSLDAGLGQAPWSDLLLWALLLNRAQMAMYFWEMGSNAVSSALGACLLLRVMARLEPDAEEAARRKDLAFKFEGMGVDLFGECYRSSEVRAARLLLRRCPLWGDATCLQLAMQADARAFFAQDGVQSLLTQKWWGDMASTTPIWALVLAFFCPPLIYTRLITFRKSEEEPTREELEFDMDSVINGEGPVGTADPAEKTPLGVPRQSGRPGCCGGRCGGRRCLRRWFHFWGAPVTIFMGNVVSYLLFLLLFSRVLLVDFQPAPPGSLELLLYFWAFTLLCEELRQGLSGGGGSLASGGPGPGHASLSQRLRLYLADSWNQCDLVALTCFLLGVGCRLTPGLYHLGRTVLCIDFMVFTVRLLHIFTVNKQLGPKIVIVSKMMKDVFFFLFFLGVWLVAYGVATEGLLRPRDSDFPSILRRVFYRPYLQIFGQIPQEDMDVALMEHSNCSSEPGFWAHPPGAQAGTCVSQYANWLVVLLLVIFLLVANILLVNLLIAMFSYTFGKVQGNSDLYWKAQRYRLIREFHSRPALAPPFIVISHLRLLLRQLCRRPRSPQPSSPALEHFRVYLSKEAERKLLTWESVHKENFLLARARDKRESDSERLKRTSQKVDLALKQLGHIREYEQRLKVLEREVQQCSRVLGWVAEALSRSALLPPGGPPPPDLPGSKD

IC50 (human TRPM5)	Papp at 120 min, 10 μM ([1]; read-out: Caco-2 perm.)	IC50 (CYP3A4; human, pH 7.4)	Papp at 120 min, 10 μM ([1]; heading: Caco-2 perm.)	Structure (SMILES)	IC50 (human TRPM4)	IC50 (CYP3A4; [2])	IC50 (CYP3A4; read-out: Cyp IC50 3A4)
> 10 µM	–	–	–	c1csc(-c2ccccc2NCc2nc3ccccc3o2)c1 [CMP355]	0.59 µM	> 50 µM	> 50 µM
> 10 µM	52 ×10⁻⁶ cm/s	> 50 µM	–	Cc1ccsc1-c1ccccc1NCc1nc2ccccc2o1 [CMP369]	–	–	–
> 30 µM	–	–	21 ×10⁻⁶ cm/s	Nc1ccccc1-c1ccccc1NCc1nc2ccccc2o1 [CMP457]	–	–	–

Structure (SMILES)	IC50 (human TRPM5)	Papp at 120 min, 10 μM ([1]; read-out: Caco-2 perm.)	IC50 (CYP3A4; human, pH 7.4)	Papp at 120 min, 10 μM ([1]; heading: Caco-2 perm.)	IC50 (human TRPM4)	IC50 (CYP3A4; [2])	IC50 (CYP3A4; read-out: Cyp IC50 3A4)
Fc1cccc(-c2ccccc2NCc2nc3ccccc3o2)c1 [CMP343]	> 10 µM	–	–	–	0.09 µM	> 50 µM	> 50 µM
Fc1ccccc1-c1ccccc1NCc1nc2ccccc2o1 [CMP353]	> 10 µM	–	–	–	0.08 µM	–	> 29.6 µM
